# From patent publication US12528802B2, “Heterocyclic compound” (Takeda Pharmaceutical Company Limited, priority 2019, dated 2026)
# Molecular target: T1, glucosylceramide synthase (Homo sapiens, UniProt Q16739)
# T1 construct: made in house; host or cells: Expi293F cells (transient expression, pcDNA3.3-TOPO vector); microsome fraction used as enzyme source
# T1 sequence (Q16739 1-394): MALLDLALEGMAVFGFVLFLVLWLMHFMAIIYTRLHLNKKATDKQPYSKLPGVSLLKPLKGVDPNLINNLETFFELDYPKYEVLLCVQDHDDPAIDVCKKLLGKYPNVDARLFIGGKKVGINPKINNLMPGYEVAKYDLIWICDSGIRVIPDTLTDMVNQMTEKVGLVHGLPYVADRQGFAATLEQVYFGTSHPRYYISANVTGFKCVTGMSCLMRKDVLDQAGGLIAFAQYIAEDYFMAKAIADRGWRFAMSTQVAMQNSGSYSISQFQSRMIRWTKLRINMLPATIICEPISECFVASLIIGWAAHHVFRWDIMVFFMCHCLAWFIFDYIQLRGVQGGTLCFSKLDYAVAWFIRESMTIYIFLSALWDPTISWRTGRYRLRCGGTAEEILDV
# Assay: Glucosylceramide synthase (GCS) enzyme assay, microsome fraction, C8 glucosylceramide quantified by Rapidfire MS/MS
# Type: biochemical
# Details: test compound 10 μM; 1.7 μM UDP-glucose, 3 μM C8 ceramide; room temperature 60 min
# In short: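 Test compound, 10 μM final, was run against human GCS from transfected Expi293F microsome fractions, using substrate solution of 6 μM C8 ceramide (in DOPC liposomes) plus 3.4 μM UDP-glucose, pH 7.5 Tris buffer, 60 min, room temperature. Product C8 glucosylceramide measured by Rapidfire MS/MS against an internal standard, % inhibition referenced to no-enzyme and DMSO wells.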
row,GCS enzyme inhibitory rate at 10 μM (%) (% of control),Compound
1,97,"O=C1c2ccnc(-c3ccc(F)cc3OCC(F)(F)F)c2CN1c1ccc(C2(O)CCOC2)c(F)c1 (racemic) [Example 235, rac-2-[3-fluoro-4-(3-hydroxyoxolan-3-yl)phenyl]-4-[4-fluoro-2-(2,2,2-trifluoroethoxy)phenyl]-2,3-dihydro-1H-pyrrolo[3,4-c]pyridin-1-one]"
2,98,"O=C1c2ccnc(-c3ccc(F)cc3OCC(F)(F)F)c2CN1c1ccc(C2(O)CCOC2)cc1 (single isomer, unassigned) [Example 264, (R or S)-4-[4-fluoro-2-(2,2,2-trifluoroethoxy)phenyl]-2-[4-(3-hydroxyoxolan-3-yl)phenyl]-2,3-dihydro-1H-pyrrolo[3,4-c]pyridin-1-one]"

# Same assay, conditions: test compound 10 μM; 1.7 μM UDP-glucose, 3 μM C8 ceramide; room temperature 60 min; read-out: GCS enzyme inhibitory rate at 10 μM (%) (% of control)
row,inhibition at 10 µM [%],Compound
1,53,"N#Cc1ccc(N2Cc3c(ccnc3-c3ccc(F)cc3OC(F)F)C2=O)nc1 [Example 70, 6-{4-[2-(difluoromethoxy)-4-fluorophenyl]-1-oxo-1,3-dihydro-2H-pyrrolo[3,4-c]pyridin-2-yl}pyridine-3-carbonitrile]"
2,100,"O=C1c2ccnc(-c3ccc(F)cc3OCC(F)(F)F)c2CN1c1ccc(OC2CCOCC2)cc1 [Example 98, 4-[4-fluoro-2-(2,2,2-trifluoroethoxy)phenyl]-2-{4-[(oxan-4-yl)oxy]phenyl}-2,3-dihydro-1H-pyrrolo[3,4-c]pyridin-1-one]"
3,98,"CC(C)(O)c1ccc(N2Cc3c(cc(Br)c(=O)n3-c3ccccc3OCC(F)(F)F)C2=O)cc1 [Example 336, 3-bromo-6-[4-(2-hydroxypropan-2-yl)phenyl]-1-[2-(2,2,2-trifluoroethoxy)phenyl]-6,7-dihydro-1H-pyrrolo[3,4-b]pyridine-2,5-dione]"
4,99,"O=C1c2ccnc(-c3ccccc3OCC(F)(F)F)c2CN1c1ccc(C(F)(F)F)cn1 [Example 60, 4-[2-(2,2,2-trifluoroethoxy)phenyl]-2-[5-(trifluoromethyl)pyridin-2-yl]-2,3-dihydro-1H-pyrrolo[3,4-c]pyridin-1-one]"
5,100,"Cc1cc2c(c(-c3c(F)cccc3OCC(F)(F)F)n1)CN(c1ccc(C(C)(C)O)cc1)C2=O [Example 353, 4-[2-fluoro-6-(2,2,2-trifluoroethoxy)phenyl]-2-[4-(2-hydroxypropan-2-yl)phenyl]-6-methyl-2,3-dihydro-1H-pyrrolo[3,4-c]pyridin-1-one]"
6,98,"O=C1c2ccnc(-c3ccccc3OCC(F)(F)F)c2CN1c1ccc(C2(O)CCC2)nc1 [Example 203, 2-[6-(1-hydroxycyclobutyl)pyridin-3-yl]-4-[2-(2,2,2-trifluoroethoxy)phenyl]-2,3-dihydro-1H-pyrrolo[3,4-c]pyridin-1-one]"
7,100,"O=C1c2ccnc(-c3ccccc3OCC(F)(F)F)c2CN1c1ccc(C(O)(C(F)(F)F)C(F)(F)F)cc1 [Example 260, 2-[4-(1,1,1,3,3,3-hexafluoro-2-hydroxypropan-2-yl)phenyl]-4-[2-(2,2,2-trifluoroethoxy)phenyl]-2,3-dihydro-1H-pyrrolo[3,4-c]pyridin-1-one]"
8,100,"CC(C)(O)c1cc2c(c(-c3ccccc3OCC(F)F)n1)CN(c1ccc(C(C)(C)C#N)cc1)C2=O [Example 360, 2-(4-{4-[2-(2,2-difluoroethoxy)phenyl]-6-(2-hydroxypropan-2-yl)-1-oxo-1,3-dihydro-2H-pyrrolo [3,4-c]pyridin-2-yl}phenyl)-2-methylpropanenitrile]"
9,100,"O=C1c2ccnc(-c3ccccc3OCC(F)(F)F)c2CN1c1ccc(C(O)C2CC2)cc1 (racemic) [Example 329, rac-2-{4-[cyclopropyl(hydroxy)methyl]phenyl}-4-[2-(2,2,2-trifluoroethoxy)phenyl]-2,3-dihydro-1H-pyrrolo[3,4-c]pyridin-1-one]"
10,97,"O=C1c2ccnc(-c3ccc(F)cc3OCC3COC3)c2CN1c1ccc(OC(F)F)cc1 [Example 126, 2-[4-(difluoromethoxy)phenyl]-4-{4-fluoro-2-[(oxetan-3-yl)methoxy]phenyl}-2,3-dihydro-1H-pyrrolo[3,4-c]pyridin-1-one]"
11,92,"N#CC1(c2ccc(N3Cc4c(ccnc4-c4ccc(F)cc4OCC(F)F)C3=O)cc2)CC1 [Example 302, 1-(4-{4-[2-(2,2-difluoroethoxy)-4-fluorophenyl]-1-oxo-1,3-dihydro-2H-pyrrolo[3,4-c]pyridin-2-yl}phenyl) cyclopropane-1-carbonitrile]"
12,100,"COc1ccccc1-c1nccc2c1CN(c1ccc(Oc3ccccc3)cc1)C2=O [Example 5, 4-(2-methoxyphenyl)-2-(4-phenoxyphenyl)-2,3-dihydro-1H-pyrrolo[3,4-c]pyridin-1-one]"
13,86,"Cn1cc(N2Cc3c(ccnc3-c3ccc(F)cc3OCC(F)(F)F)C2=O)cn1 [Example 81, 4-[4-fluoro-2-(2,2,2-trifluoroethoxy)phenyl]-2-(1-methyl-1H-pyrazol-4-yl)-2,3-dihydro-1H-pyrrolo[3,4-c]pyridin-1-one]"
14,100,"O=C1c2ccnc(-c3ccccc3OCC(F)(F)F)c2CN1c1ccc(OC(F)F)nc1 [Example 75, 2-[6-(difluoromethoxy)pyridin-3-yl]-4-[2-(2,2,2-trifluoroethoxy)phenyl]-2,3-dihydro-1H-pyrrolo[3,4-c]pyridin-1-one]"
15,98,"O=C1c2ccnc(-c3ccc(F)cc3OCC(F)(F)F)c2CN1c1ccc(N2CCOCC2)nc1 [Example 177, 4-[4-fluoro-2-(2,2,2-trifluoroethoxy)phenyl]-2-[6-(morpholin-4-yl)pyridin-3-yl]-2,3-dihydro-1H-pyrrolo[3,4-c]pyridin-1-one]"
16,100,"O=C1c2ccnc(-c3ccccc3OCC(F)(F)F)c2CN1c1ccc(C2(O)CCOCC2)cc1 [Example 242, 2-[4-(4-hydroxyoxan-4-yl)phenyl]-4-[2-(2,2,2-trifluoroethoxy)phenyl]-2,3-dihydro-1H-pyrrolo[3,4-c]pyridin-1-one]"
17,87,"O=C1c2ccnc(-c3ccc(F)cc3OCC(F)(F)F)c2CN1c1ccc(OCC(F)F)nc1 [Example 131, 2-[6-(2,2-difluoroethoxy)pyridin-3-yl]-4-[4-fluoro-2-(2,2,2-trifiuoroethoxy)phenyl]-2,3-dihydro-1H-pyrrolo[3,4-c]pyridin-1-one]"
18,90,"N#Cc1ccc(N2Cc3c(ccnc3-c3ccccc3OC(F)F)C2=O)nc1 [Example 73, 6-{4-[2-(difluoromethoxy)phenyl]-1-oxo-1,3-dihydro-2H-pyrrolo[3,4-c]pyridin-2-yl}pyridine-3-carbonitrile]"
19,100,"O=C1c2ccnc(-c3ccc(F)cc3OCC(F)(F)F)c2CN1c1ccc(C2(O)CCC2)cc1 [Example 163, 4-[4-fluoro-2-(2,2,2-trifluoroethoxy)phenyl]-2-[4-(1-hydroxycyclobutyl)phenyl]-2,3-dihydro-1H-pyrrolo[3,4-c]pyridin-1-one]"
20,98,"O=C1c2ccnc(-c3ccccc3OCC(F)(F)F)c2CN1c1ccc(C(O)C(F)(F)F)nc1 (racemic) [Example 249, rac-4-[2-(2,2,2-trifluoroethoxy)phenyl]-2-[6-(2,2,2-trifluoro-1-hydroxyethyl)pyridin-3-yl]-2,3-dihydro-1H-pyrrolo[3,4-c]pyridin-1-one]"
21,96,"CC(C)n1cc(N2Cc3c(ccnc3-c3ccc(F)cc3OCC(F)(F)F)C2=O)cn1 [Example 97, 4-[4-fluoro-2-(2,2,2-trifluoroethoxy)phenyl]-2-[1-(propan-2-yl)-1H-pyrazol-4-yl]-2,3-dihydro-1H-pyrrolo[3,4-c]pyridin-1-one]"
22,55,"O=C1c2[nH]nc(-c3ccc(F)cc3OCC(F)(F)F)c2CN1c1ccc(F)cc1 [Example 146, 5-(4-fluorophenyl)-3-[4-fluoro-2-(2,2,2-trifluoroethoxy)phenyl]-4,5-dihydropyrrolo[3,4-c]pyrazol-6(1H)-one]"
23,100,"CC(C)(O)c1cc2c(c(-c3ccccc3OCC(F)F)n1)CN(c1ccc(C(F)F)cc1)C2=O [Example 357, 4-[2-(2,2-difluoroethoxy)phenyl]-2-[4-(difluoromethyl)phenyl]-6-(2-hydroxypropan-2-yl)-2,3-dihydro-1H-pyrrolo[3,4-c] pyridin-1-one]"
24,91,"CN1CCN=C(c2ccc(F)cc2OCC(F)(F)F)C2=C1C(=O)N(c1ccc(OCC(F)(F)F)cc1)C2 [Example 179, 5-[4-fluoro-2-(2,2,2-trifluoroethoxy)phenyl]-1-methyl-7-[4-(2,2,2-trifluoroethoxy)phenyl]-2,3,6,7-tetrahydropyrrolo[3,4-e][1,4]diazepin-8(1H)-one]"

row,Compound,inhibition at 10 µM [%]
1,"CC(C)(C)[Si](C)(C)OC1(c2ccc(N3Cc4c(ccnc4-c4ccccc4OCC(F)(F)F)C3=O)cc2)CC1 [Example 221, 2-[4-(1-{[tert-butyl(dimethyl)silyl]oxy}cyclopropyl)phenyl]-4-[2-(2,2,2-trifluoroethoxy)phenyl]-2,3-dihydro-1H-pyrrolo[3,4-c]pyridin-1-one]",99
